Data: PMC2630467 (Journal of medicinal chemistry, 2008)
“Also recorded” adds a separate entry of the source.

Experiments:
[1] = target: T1, CYP2C9 (Homo sapiens, UniProt P11712); experiment: EPR studies on binding modes with ferric 2C9; conditions: ferric 2C9 18.5 μM, substrate 1 mM, 20 K
[2] = target: T1, CYP2C9; experiment: UV difference spectroscopy of binding and substrate titrations with purified 2C9; conditions: UV difference spectra 350-500 nm
[3] = target: T1, CYP2C9; experiment: Reconstituted purified 2C9 system inhibition; format: biochemical

T1 sequence (P11712 whole entry): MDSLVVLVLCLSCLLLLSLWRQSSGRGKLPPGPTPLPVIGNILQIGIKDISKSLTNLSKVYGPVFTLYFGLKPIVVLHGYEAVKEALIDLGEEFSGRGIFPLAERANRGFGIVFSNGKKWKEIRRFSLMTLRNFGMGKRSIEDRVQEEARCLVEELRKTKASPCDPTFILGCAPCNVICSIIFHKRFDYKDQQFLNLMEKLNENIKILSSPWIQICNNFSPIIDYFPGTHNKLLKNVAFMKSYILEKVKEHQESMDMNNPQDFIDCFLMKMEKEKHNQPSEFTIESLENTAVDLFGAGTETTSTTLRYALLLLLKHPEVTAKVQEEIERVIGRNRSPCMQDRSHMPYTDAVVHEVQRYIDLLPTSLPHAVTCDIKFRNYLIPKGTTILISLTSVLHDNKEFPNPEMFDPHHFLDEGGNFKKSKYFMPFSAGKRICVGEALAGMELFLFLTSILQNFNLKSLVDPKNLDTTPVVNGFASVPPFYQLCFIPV

In the case of `O=C(Nc1ccc2ccccc2c1)c1cc(-c2cccnc2)nc2ccccc12` [Compound 8, N-(naphthalen-2-yl)-2-(pyridin-3-yl)quinoline-4-carboxamide], the “Binding Type EPR” value [1] is reported as “Type I”.

For `O=C(c1cc(-c2ccncc2)nc2ccccc12)N1CCCCC1` [Compound 1, Piperidin-1-yl(2-(pyridin-4-yl)quinolin-4-yl)methanone], the “Binding Type UV” value [2] was “typical Type II binding spectra” and the “Binding Type EPR” value [1] was “Type II”.

With `O=C(Nc1ccc2ccccc2c1)c1cc(-c2ccncc2)nc2ccc(Cl)cc12` [Compound 19, 6-chloro-N-(naphthalen-2-yl)-2-(pyridin-4-yl)quinoline-4-carboxamide] the “Binding Type EPR” value [1] was “low-spin shift; also recorded: mixed mode; also recorded: Type II/Type I”.

For `O=C(c1cc(-c2cccnc2)nc2ccccc12)N1CCCCC1` [Compound 2, Piperidin-1-yl(2-(pyridin-3-yl)quinolin-4-yl)methanone], the “Binding Type UV” value [2] was “mixed Type I and Type II binding” and the “Binding Type EPR” value [1] was “Type I”.

For `O=C(Nc1ccc2ccccc2c1)c1cc(-c2ccccn2)nc2ccccc12` [Compound 9, N-(naphthalen-2-yl)-2-(pyridin-2-yl)quinoline-4-carboxamide], the “Binding Type EPR” value [1] was “Type I”.

With `O=C(Nc1ccccc1)c1cc(-c2cccnc2)nc2ccccc12` [Compound 14, N-phenyl-2-(pyridin-3-yl)quinoline-4-carboxamide] the “Binding Type UV” value [2] was “mixed Type II and Type I binding modes”.

In the case of `O=C(Nc1ccc2ccccc2c1)c1cc(-c2ccncc2)nc2ccccc12` [Compound 7, N-(naphthalen-2-yl)-2-(pyridin-4-yl)quinoline-4-carboxamide], the “Binding Type EPR” value [1] is reported as “low-spin shift; also recorded: pure Type II”.

In the case of `Cc1cc(C)c2nc(-c3cccnc3)cc(C(=O)Nc3ccc4ccccc4c3)c2c1` [Compound 17, 6,8-dimethyl-N-(naphthalen-2-yl)-2-(pyridin-3-yl)quinoline-4-carboxamide], the “Binding Type EPR” value [1] is reported as “Type I”.

With `O=C(Nc1ccccc1)c1cc(-c2ccncc2)nc2ccccc12` [Compound 13, N-phenyl-2-(pyridin-4-yl)quinoline-4-carboxamide] the “Binding Type UV” value [2] was “clear Type II binding spectra; also recorded: typical Type II binding spectra” and the Ki [3] was 79.8 nM.

In the case of `Cc1cc(C)c2nc(-c3ccccn3)cc(C(=O)Nc3ccc4ccccc4c3)c2c1` [Compound 18, 6,8-dimethyl-N-(naphthalen-2-yl)-2-(pyridin-2-yl)quinoline-4-carboxamide], the “Binding Type EPR” value [1] is reported as “Type I”.

For `O=C(Nc1ccccc1)c1cc(-c2ccccn2)nc2ccccc12` [Compound 15, N-phenyl-2-(pyridin-2-yl)quinoline-4-carboxamide], the “Binding Type UV” value [2] was “does not give a either a Type I or Type II binding spectra”.
